PMC7332102, “Ubiquitin activation is essential for schizont maturation in Plasmodium falciparum blood-stage development” (PLoS Pathogens, 2020)

Biological target: T1, PfUBA1 (ubiquitin activating enzyme, E1; PF3D7_1225800) (Plasmodium falciparum, UniProt Q8I5F9)
T1 construct: Thr39 to Lys1140, N-terminal His10-tag, insect cells; with ubiquitin (Cy5-labelled, M1C)
Test: Cy5-ubiquitin~E1 thioesterification gel assay with recombinant PfUBA1
Type: biochemical

T1 sequence (Q8I5F9 entry or part of it): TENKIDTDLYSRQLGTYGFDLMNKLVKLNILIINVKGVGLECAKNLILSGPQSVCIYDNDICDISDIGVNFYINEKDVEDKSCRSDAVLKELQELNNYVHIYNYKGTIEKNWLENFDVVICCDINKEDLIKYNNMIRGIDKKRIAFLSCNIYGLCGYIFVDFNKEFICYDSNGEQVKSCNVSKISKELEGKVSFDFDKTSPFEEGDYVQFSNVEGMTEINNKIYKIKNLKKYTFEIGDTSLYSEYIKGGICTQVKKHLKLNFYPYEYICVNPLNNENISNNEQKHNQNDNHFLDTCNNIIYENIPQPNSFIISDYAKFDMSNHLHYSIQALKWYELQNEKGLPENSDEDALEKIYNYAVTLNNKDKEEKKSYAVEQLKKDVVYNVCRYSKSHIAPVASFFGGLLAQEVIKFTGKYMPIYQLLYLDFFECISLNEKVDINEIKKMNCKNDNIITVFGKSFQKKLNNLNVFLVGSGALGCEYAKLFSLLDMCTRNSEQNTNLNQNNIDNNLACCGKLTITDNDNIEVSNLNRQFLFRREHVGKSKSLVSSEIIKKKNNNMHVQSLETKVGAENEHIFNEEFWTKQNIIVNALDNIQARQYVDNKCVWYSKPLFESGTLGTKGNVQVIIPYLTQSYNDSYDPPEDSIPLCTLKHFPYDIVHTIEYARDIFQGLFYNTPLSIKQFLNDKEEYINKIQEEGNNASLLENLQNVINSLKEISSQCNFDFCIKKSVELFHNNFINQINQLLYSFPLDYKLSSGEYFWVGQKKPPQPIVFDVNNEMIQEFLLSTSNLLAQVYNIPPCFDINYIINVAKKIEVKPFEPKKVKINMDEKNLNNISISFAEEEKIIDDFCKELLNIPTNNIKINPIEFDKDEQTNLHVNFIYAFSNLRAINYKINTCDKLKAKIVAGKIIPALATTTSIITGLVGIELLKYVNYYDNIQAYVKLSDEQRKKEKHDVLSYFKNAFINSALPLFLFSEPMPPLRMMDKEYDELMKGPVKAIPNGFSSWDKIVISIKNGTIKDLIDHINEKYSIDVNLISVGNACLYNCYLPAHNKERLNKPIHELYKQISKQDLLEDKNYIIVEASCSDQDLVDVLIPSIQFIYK

| SMILES | IC50 [µM] |
| --- | --- |
| NS(=O)(=O)OC[C@@H]1C[C@@H](n2ccc3c(N[C@H]4CCc5ccccc54)ncnc32)C[C@@H]1O [MLN4924] | 47 ± 5 |
| NS(=O)(=O)OC[C@H]1C[C@@H](Nc2ccnc3cc(-c4cccc(SC(F)(F)F)c4)nn23)[C@H](O)[C@@H]1O [MLN7243] | 1.4 ± 0.2 |
